Measured values from patent US20100130436A1, “CO-ADMINISTRATION OF RANOLAZINE AND CARDIAC GLYCOSIDES” (priority 2008, published 2010).
Where “and” joins values, the source holds several entries; their conditions need not be identical. Equal entries are not always repeated. Where two headings read alike, the source gives them in different places.

Legend:
[1] = system: guinea pig isolated, perfused heart; conditions: for developed pressure: FIG. 7
[2] = system: [Na+]i of guinea pig isolated heart; assay: 23Na-NMR spectroscopy of intracellular sodium concentration in isolated heart
[3] = system: isolated guinea pig papillary muscles
[4] = system: late sodium current (late INa); assay: Whole-cell patch-clamp of late INa in isolated ventricular myocytes; format: cell-based, guinea pig; conditions: for effect of ouabain (1 μmol/L) to increase late INa: FIG. 10, intracellular KN-93 10 μmol/L, EGTA 1 mmol/L, KN-92 10 μmol/L; for late INa at the end of a 10-min exposure to ouabain / increase of late INa at the end of a 10-min exposure to ouabain: ouabain 1 μmol/L
[5] = system: cat papillary muscles; conditions: 1.37 μmol/L ouabain, Lee et al. 1960; cited from earlier work
[6] = system: guinea pig isolated, perfused heart; assay: 31P-NMR spectroscopy of energy-related phosphates and pHi in isolated heart
[7] = system: Na+, K+-ATPase; assay: Na+,K+-ATPase activity assay by 86Rb+ uptake of A7r5 cells; format: cell-based; conditions: for 86Rb+ uptake: control = activity in presence of ouabain
Description: The activity of Na^+, K^+-ATPase was inhibited 77% by 1 mmol/L ouabain in the absence (control) of ranolazine. Values of ^86Rb^+ uptake were 91±11, 98±2.5, and 93±8.3% of control (activity in presence of ouabain) in the presence of 3, 10, and 30 μmol/L ranolazine, respectively.

[8] = system: cardiac tissues; conditions: Heers et al. 1991; Damiano et al. 1991; cited from earlier work
[9] = 0.75 μmol/L ouabain for 60 min, n=5
[10] = Example 1, ouabain-alone treated hearts
[11] = after ouabain treatment (discussion)
[12] = FIG. 1, after ouabain without ranolazine
[13] = agent 10 μmol/L intracellular via patch pipette
[14] = 0.75 μmol/L ouabain in the presence of 10 μmol/L ranolazine
[15] = 0.75 μmol/L ouabain in the presence of 10 μmol/L ranolazine, 60 min

Structure (SMILES): NC1=N[C@H](O)[C@H]2[C@H]3O[C@]4(O)O[C@@H]([C@@H](O)[C@@]2(N1)[C@@H]4O)[C@]3(O)CO [TTX, tetrodotoxin]
- LVSP decrease [1]: 9% and 18.2%
- effect of ouabain to cause contractile dysfunction [1]: attenuated
- episodes of cardiac standstill and changes in LVEDP [1]: neither episodes of cardiac standstill nor changes in LVEDP were observed
- maximum value of RPP [1]: 35,569±1,850 mmHg/min and 39,182±2,216 mmHg/min
- occurrence of episodes of cardiac standstill caused by ouabain [1]: reduced
- positive inotropic effect of ouabain throughout the 60-min exposure [1]: sustained
- recovery of contractile function after drug washout [1]: better recovery
- responses of hearts exposed to ouabain [1]: comparable to those exposed to ouabain in the presence of 3 union ranolazine
- [Na+]i [2]: did not significantly change
- [Na+]i plateau concentration [2]: 10.5 ± 0.3 mmol/L
- decrease in the ouabain-induced rise of [Na+]i [2]: concentration-dependent
- increase of diastolic tension during ouabain treatment [3]: attenuated
- effect of 1 μmol/L ouabain to increase late INa [4]: partially reversed
- late INa [4]: 21.2±7.9 pC/pF
- ouabain-induced late current [4]: completely inhibited

Structure (SMILES): C[C@@H]1O[C@@H](O[C@H]2C[C@@H](O)[C@]3(CO)[C@H]4[C@H](O)C[C@]5(C)[C@@H](C6=CC(=O)OC6)CC[C@]5(O)[C@@H]4CC[C@]3(O)C2)[C@H](O)[C@H](O)[C@H]1O [ouabain]
- reduction of [ATP] [5]: 42%
- reduction of [PCr] [5]: 66%
- [ATP] decline [6, 9]: 55±6%
- [PCr] decline [6, 9]: 56±7%
- [Pi] increase [6, 9]: 3.7±0.9 -fold
- [Pi] before washout ([6]; 0.75 μmol/L ouabain for 60 min, control 2.9±0.2): 9.1 ± 0.5 mmol/L
- pHi ([6]; 0.75 μmol/L ouabain for 60 min, control 7.15±0.01): 7.07±0.01
- decrease of |ΔG~ATP| ([6]; 0.75 μmol/L ouabain for 60 min, control 59.2 kJ/mol): 1.72 ± 0.287 kcal/mol
- ATP content reduced by [6, 10]: 64%
- intracellular inorganic phosphate (Pi) increase [6, 10]: 4.8 fold
- phosphocreatine (PCr) content reduced by [6, 10]: 59%
- pH ([6]; Example 1, ouabain-alone treated hearts, baseline 7.14): 7.07
- [Pi] after 20-min washout ([6]; after 0.75 μmol/L ouabain): 5.8 ± 0.4 mmol/L
- pHi after 20-min washout ([6]; after 0.75 μmol/L ouabain): 7.15
- loss of [ATP] and [PCr] [6, 11]: over 50%
- reduction of the value of |ΔG~ATP| [6, 11]: 1.7 kcal/mol
- hearts with episodes of cardiac standstill ([1]; 0.75 μmol/L ouabain for 60 min, alone): 11 out of 13
- LVSP ([1]; 0.75 μmol/L ouabain, from 96±2 mmHg, n=13): 148±6 mmHg
- RPP ([1]; 0.75 μmol/L ouabain, from 26,497±664 mmHg/min, n=13): 40,676±1159 mmHg/min
- increase of LVSP ([1]; 0.75 μmol/L ouabain, n=13): 55±5%
- increase of RPP ([1]; 0.75 μmol/L ouabain, n=13): 59±6%
- diastolic function (pressure) during 20 min wash out [1, 12]: 34 mmHg
- systolic pressure during 20 min wash out [1, 12]: 70 mmHg
- Left ventricular systolic pressure, maximum upon infusion with ouabain ([1]; FIG. 1 representative tracing, ouabain without ranolazine, baseline 101 mmHg): 140 mmHg
- EDP during toxic effect of ouabain ([1]; FIG. 1 representative tracing, ouabain without ranolazine, increase from 8 mmHg): 45 mmHg
- developed pressure ([1]; ouabain-only treated hearts): significantly decreased
- LVDevP at the end of washout ([1]; ouabain alone, control 89.1±1.0 mmHg): 36.4±5.9 mmHg
- [Na+]i ([2]; 0.75 μmol/L ouabain for 40 min, absence of ranolazine, n=4): 14.9 ± 0.9 mmol/L
- [Na+]i ([2]; 0.75 μmol/L ouabain for 76 min, absence of ranolazine, n=4): 18.1 ± 0.9 mmol/L
- [Na+]i plateau level ([2]; 1.3 μmol/L ouabain alone, n=6): 22.9 ± 0.7 mmol/L
- increase of [Na+]i ([2]; 1.3 μmol/L ouabain, at 60 min): 3.3 -fold
- [Na+]i after washout of ouabain for 20 min ([2]; after 1.3 μmol/L ouabain, n=5): 10.3 ± 1.8 mmol/L
- activity of Na+, K+-ATPase inhibited ([7]; 1 mmol/L ouabain, absence of ranolazine): 77%
- integrated late INa ([4]; 3 to 5-min exposure to ouabain 1 μmol/L, from 23.5±4.9, n=8): 99.6±15.2 pC/pF
- late INa ([4]; ouabain alone 1 μmol/L, 5-10 min, from 21±2, n=6): 84±12 pC/pF
- increase of late INa ([4]; ouabain alone 1 μmol/L, 5-10 min, n=6): 318±74%

Structure (SMILES): O=C(O)CN(CCOCCOCCN(CC(=O)O)CC(=O)O)CC(=O)O [EGTA]
- effect of ouabain (1 μmol/L) to increase late INa [4]: attenuated
- late INa at the end of a 10-min exposure to ouabain ([4]; EGTA 1 mmol/L in patch pipette, from 23±3, n=6): 31±8 pC/pF
- increase of late INa at the end of a 10-min exposure to ouabain ([4]; EGTA 1 mmol/L in patch pipette, n=6): 33±28%

Structure (SMILES): COc1ccc(S(=O)(=O)N(CCO)c2ccccc2CN(C)C/C=C/c2ccc(Cl)cc2)cc1 [KN-93]
- effect of ouabain (1 μmol/L) to increase late INa [4]: attenuated
- increase of late INa at the end of a 10-min exposure to ouabain [4, 13]: 76±35%
- late INa at the end of a 10-min exposure to ouabain [4, 13]: 33±6 pC/pF

Structure (SMILES): CN(c1nc2ccccc2s1)C1CCN(CCCCOc2ccc(F)cc2)CC1 [R56865]
- sodium and calcium overload during exposure to cardiac glycosides [8]: reduce sodium and calcium overload

Structure (SMILES): COc1ccccc1OCC(O)CN1CCN(CC(=O)Nc2c(C)cccc2C)CC1 (stereo not shown) [ranolazine]
- [Pi] increase [6, 14]: 1.3±0.1 times
- fall in pHi [6, 14]: not significant
- [ATP] [6, 15]: did not change significantly
- [PCr] decrease from baseline [6, 15]: 19±5%
- [Pi] increase ([6]; Example 1, RAN + ouabain): 14%
- pH ([6]; Example 1, RAN + ouabain): remained constant
- ATP and PCr decrease ([6]; Example 1, RAN pretreatment, after 60 min of ouabain treatment): 20%
- decrease of |ΔG~ATP| ([6]; ouabain in the presence of 10 μmol/L ranolazine): 0.454 ± 0.14 kcal/mol
- concentrations of phosphates or pHi ([6]; ranolazine alone for 10 min): did not alter
- effect of ouabain to cause contractile dysfunction [1]: attenuated
- mechanical dysfunction (increase in end diastolic pressure, episodes of cardiac standstill) [1]: not observed
- occurrence of episodes of cardiac standstill caused by ouabain [1]: reduced
- maximum value of RPP ([1]; 0.75 μmol/L ouabain + 3 μmol/L ranolazine, n=8): 40,033±1,477 mmHg/min
- positive inotropic response to ouabain during the 60-min exposure ([1]; 0.75 μmol/L ouabain + 5 μmol/L ranolazine): not sustained at a maximal level
- maximum value of RPP ([1]; 0.75 μmol/L ouabain + 5 μmol/L ranolazine, n=5): 38,874±2,904 mmHg/min
- maximum value of RPP ([1]; 0.75 μmol/L ouabain + 10 μmol/L ranolazine, n=8): 41,079±2,097 mmHg/min
- positive inotropic response to ouabain ([1]; Example 1, RAN 10 μM, ouabain 0.75-1.3 μM for 60 min): did not reduce
- systolic pressure during Ranolazine delivery ([1]; FIG. 2, 3.3 uM Ran pretreatment): slight drop
- maximal inotropic effect of ouabain ([1]; FIG. 2, heart pretreated with 3.3 uM Ran): the same as in the ouabain alone treated hearts
- SP (systolic pressure) ([1]; FIG. 3, 5 uM Ran): transient decrease
- maximal positive inotropic effect of ouabain ([1]; FIG. 3, 5 uM Ran): not reduced
- left ventricular contractile function over the duration of the experiment ([1]; FIG. 4, heart pretreated with 10 uM Ran): stable contractile function
- ability of ouabain to significantly increase the pos dP/dt ([1]; FIG. 6): did not affect
- RPP increase upon infusion with ouabain ([1]; FIG. 6, hearts pretreated with 10 uM ranolazine): reached the same value as in the absence of ranolazine
- RPP during the wash out period ([1]; FIG. 6, ouabain in the presence of ranolazine vs ouabain alone): improved
- decrease of RPP (rate pressure product) ([1]; FIG. 6, pretreatment with 10 uM ranolazine, before ouabain): about 20%
- developed pressure ([1]; ouabain, hearts treated with 10 uM ranolazine): increased
- LVDevP at the end of washout ([1]; ouabain + 3 μmol/L ranolazine): 59.2±5.5 mmHg
- positive inotropic effect of ouabain throughout the 60-min exposure ([1]; ouabain + 10 μmol/L ranolazine (n=8) or 1 μmol/L TTX (n=6)): sustained
- episodes of cardiac standstill and changes in LVEDP ([1]; ouabain + 10 μmol/L ranolazine or 1 μmol/L TTX): neither episodes of cardiac standstill nor changes in LVEDP were observed
- LVDevP at the end of washout ([1]; ouabain + 5 or 10 μmol/L ranolazine or 1 μmol/L TTX): not significantly different from control
- recovery of contractile function after drug washout ([1]; ouabain + 5 or 10 μmol/L ranolazine or 1 μmol/L TTX, vs ouabain alone): better recovery
- LVSP decrease ([1]; ranolazine alone 3 μmol/L): 8%
- LVSP decrease ([1]; ranolazine alone 5 μmol/L): 16.7%
- LVSP decrease ([1]; ranolazine alone 10 μmol/L): 15.8%
- [Na+]i plateau concentration ([2]; 1.3 μmol/L ouabain in the presence of 10 μmol/L ranolazine, n=8): 15.4 ± 0.45 mmol/L
- [Na+]i ([2]; 10 μmol/L ranolazine for up to 30 min or 1 μmol/L TTX for 10 min, no ouabain): did not significantly change
- ouabain-induced increase in [Na+]i ([2]; 3 or 10 μmol/L ranolazine given after 40 min of 0.75 μmol/L ouabain alone, pooled n=6, FIG. 8C): partially reversed
- cardiac [Na+]i during normal perfusion ([2]; Example 1, RAN 10 μM): did not change
- [Na+]i accumulation during ouabain treatment ([2]; Example 1, RAN 10 μM, P<0.01): reduced
- decrease in the ouabain-induced rise of [Na+]i ([2]; FIG. 8E, Ran 3 and 10, TTX 0.5 and 1 μmol/L): concentration-dependent
- [Na+]i ([2]; ranolazine 10 μmol/L for 30 min, no ouabain, n=5, control 6.9±0.6): 6.5 ± 0.4 mmol/L
- level of [Na+]i in hearts previously exposed to ouabain alone for 40 min ([2]; ranolazine 10 μmol/L, 30 min, FIG. 8C): did not significantly reduce
- 86Rb+ uptake ([7]; 3 μmol/L ranolazine): 91±11 % of control
- 86Rb+ uptake ([7]; 10 μmol/L ranolazine): 98±2.5 % of control
- 86Rb+ uptake ([7]; 30 μmol/L ranolazine): 93±8.3 % of control
- effect on sodium pump activity ([7]; 3, 10, 30 μmol/L ranolazine): no measurable effect
- increase of diastolic tension during ouabain treatment ([3]; 5 and 10 μmol/L ranolazine and 1 μmol/L TTX): attenuated
- effect of 1 μmol/L ouabain to increase late INa ([4]; FIG. 9, ranolazine 10 μmol/L or TTX 3 μmol/L): partially reversed
- reduction of late INa ([4]; ranolazine 10 μmol/L in the continuous presence of ouabain 1 μmol/L, n=8): 69±9%
- late INa ([4]; ranolazine 10 μmol/L in the continuous presence of ouabain, from 99.6±15.2, n=8): 50.6±13.6 pC/pF

Structure (SMILES): COc1ccc(S(=O)(=O)Nc2ccccc2CN(C)C/C=C/c2ccc(Cl)cc2)cc1 [KN-92]
- effect of ouabain (1 μmol/L) to increase late INa [4]: not
- increase of late INa at the end of a 10-min exposure to ouabain [4, 13]: 273±39%
- late INa at the end of a 10-min exposure to ouabain [4, 13]: 72±7 pC/pF
